Assay results: patent US12246025B2, “Methods of treating cancer with a combination of a platinum-based agent and an anti-tissue factor antibody-drug conjugate” (priority 2018, dated 2025)

Assays:
[1] = test system: bladder xenograft model BXF1036; assay: Anti-tumor efficacy of tisotumab vedotin with cisplatin in bladder cancer PDX mouse model; type: in vivo, Crl:NMRI-Foxn1^nu nude mice; details: alone; for tumor growth: tisotumab vedotin 0.5 mg/kg, cisplatin 2 mg/kg, FIG. 2A-C; for survival: tumor size cut-off 500 mm^3, FIG. 2D
Description: The in vivo anti-tumor efficacy of tisotumab vedotin in combination with cisplatin was evaluated in a PDX mouse model in female Crl:NMRI-Foxn1^nu (Envigo RMS SARL, France) nude mice (Charles River Discovery Research Services). Xenografts were derived from tumor specimens from cancer patients. Establishment and characterization of the PDX model was performed following primary implantation into nude mice. Tumor xenografts were passaged approximately three to five times until establishment of stable growth patterns. Tumor fragments were obtained from xenografts in serial passage in nude mice. Tumors were cut into fragments of 3-4 mm diameter and placed in phosphate-buffered saline (PBS) until subcutaneous implantation. A bladder cancer PDX model (bladder xenograft model BXF1036; Charles River Discovery Research Services) was used in this experiment. Tumor size was determined by caliper measurement at least two times a week and tumor volume was calculated as 0.52×length×[…]. When tumors reached the volume of 50-250 mm^3, mice were randomized in 5 groups (10 mice per treatment group). Mice were treated with the following: 1) tisotumab vedotin alone at a dose level of 0.5 mg/kg provided on day 1 of treatment; 2) cisplatin alone at a dose of 2 mg/kg provided on day 1 and day 8 of treatment; 3) tisotumab vedotin at a dose level of 0.5 mg/kg provided on day 1 of treatment in combination with cisplatin at a dose of 2 mg/kg provided on day 1 and day 8 of treatment; 4) IgG1 isotype control at a dose of 0.5 mg/kg provided on day 1 of treatment; or 5) IgG1-MMAE control at a dose of 0.5 mg/kg provided on day 1 of treatment. IgG1 isotype control, IgG1-MMAE control and tisotumab vedotin were each in PBS and injected intravenously. Cisplatin was in 0.9% NaCl and injected subcutaneously. […] Mice were housed in individually ventilated (IVC) cages, with a maximum of five mice per cage, and identified by ear tags.
To determine whether there were statistically significant differences between tumor volumes in control and treatment groups, tumor volumes in the treatment groups were compared with those in the control groups (e.g., IgG1-MMAE control, tisotumab vedotin alone or cisplatin alone) using Mann-Whitney analysis at the last day that all groups were intact, i.e., day 25. Statistical analysis of the difference between groups treated with tisotumab vedotin in combination with cisplatin and groups treated with either tisotumab vedotin alone or cisplatin alone was performed on day 32.
Tumor progression was plotted in a Kaplan-Meier plot, with a cut-off set at a tumor volume >500 mm^3. […]

[2] = test system: HuPrime® cervical xenograft model CV1248 [R4P5]; assay: Anti-tumor efficacy of tisotumab vedotin with cisplatin in cervical cancer PDX mouse model; type: in vivo, BALB/c nude mice; details: alone, tisotumab vedotin 2 mg/kg and 4 mg/kg, cisplatin 4 mg/kg; for tumor growth: FIG. 1A-C; for survival: tumor size cut-off 1000 mm^3, FIGS. 1D and 1E
Description: The in vivo anti-tumor efficacy of tisotumab vedotin in combination with cisplatin was evaluated in a patient-derived xenograft (PDX) mouse model in BALB/c nude mice (Crown Bioscience Inc.). Xenografts were derived from tumor specimens from cancer patients. Establishment and characterization of the PDX model was performed following primary implantation into nude mice. Tumor xenografts were passaged approximately three to five times until establishment of stable growth patterns. Tumor fragments were obtained from xenografts in serial passage in nude mice. Tumors were cut into fragments of 2-3 mm diameter and placed in phosphate-buffered saline (PBS) until subcutaneous implantation. A cervical cancer PDX model (HuPrime® cervical xenograft model CV1248 [R4P5]; Crown Bioscience Inc.) was used in this experiment. Tumor size was determined by caliper measurement at least two times a week and tumor volume was calculated as 0.5×length×width^2. When tumors reached the volume of 200 mm^3, mice were randomized in 11 groups (7-8 mice per treatment group). Mice were treated with the following by intravenous injections: 1) tisotumab vedotin alone at a dose level of 0.5 mg/kg, 1 mg/kg, 2 mg/kg or 4 mg/kg provided on day 0 and day 7 of treatment; 2) cisplatin alone at a dose of 4 mg/kg provided on day 0, day 7 and day 14 of treatment; 3) tisotumab vedotin at a dose level of 0.5 mg/kg, 1 mg/kg, 2 mg/kg or 4 mg/kg provided on day 0 and day 7 of treatment in combination with cisplatin at a dose of 4 mg/kg provided on day 0, day 7 and day 14 of treatment; 4) IgG1 isotype control at a dose of 4 mg/kg provided on day 0 and day 7 of treatment; or 5) IgG1-MMAE control at a dose of 4 mg/kg provided on day 0 and day 7 of treatment. […] Mice were housed in individually ventilated (IVC) cages, four or five mice per cage and identified by ear tags.
To determine whether there were statistically significant differences between tumor volumes in control and treatment groups, tumor volumes in the treatment groups were compared with those in the control group (e.g., treatment groups vs IgG1-MMAE control) using Mann-Whitney analysis at the last day that all groups were intact, i.e., day 38. For survival analysis (tumor volume cut-off was 1,000 mm^3). Mantel-Cox analysis was performed on Kaplan-Meier plots with a cut-off set at tumor volume >1,000 mm^3.

[3] = test system: HuPrime® cervical xenograft model CV1248 [P3]; assay: Anti-tumor efficacy of tisotumab vedotin with carboplatin in cervical cancer PDX mouse model; type: in vivo, BALB/c nude mice; details: alone; tisotumab vedotin 2 mg/kg, carboplatin 40 or 80 mg/kg; FIGS. 3A and 3B
Description: The in vivo anti-tumor efficacy of tisotumab vedotin in combination with carboplatin was evaluated in a patient-derived xenograft (PDX) mouse model in female BALB/c nude mice (Crown Bioscience [Taicang] Inc.). Xenografts were derived from tumor specimens from cancer patients. Tumor fragments were obtained from xenografts in serial passage in nude mice. Tumors were cut into fragments of 2-4 mm diameter and placed in phosphate-buffered saline (PBS) until subcutaneous implantation. A cervical cancer PDX model (HuPrime® cervical xenograft model CV1248 [P3]; Crown Bioscience Inc.) was used in this experiment. Tumor size was determined by caliper measurement at least two times a week and tumor volume was calculated as 0.5×length× width^2. When tumors reached an average volume of 150 mm^3, mice were randomized in 7 groups (10 mice per treatment group). The day of randomization was designated day 0. Mice were treated with the following by intravenous injections: 1) tisotumab vedotin alone at a dose level of 2 mg/kg, provided on day 0, day 7 and day 14; 2) carboplatin (Selleck Chemicals, cat. no. […]

[4] = test system: relapsed, recurrent, and/or metastatic cervical cancer; details: cited from earlier work

Compound	tumor growth [1]	survival [1]	tumor growth [2]	survival [2]	tumor growth [3]	efficacy ([4]; 2.0 mg/kg)	safety profile ([4]; 2.0 mg/kg)	grade of reported peripheral neuropathy cases ([4]; in vivo)	Epistaxis (bleeding AE) ([4]; nearly all of the cases are grade 1)	subjects with peripheral neuropathy ([4]; subjects who received treatment with tisotumab vedotin)
N.N.[Cl][Pt][Cl] [Cisplatin, reference compound]	inhibited tumor growth	prolonged survival	inhibited tumor growth	prolonged survival	–	–	–	–	–	–
N.N.O=C([O-])C1(C(=O)[O-])CCC1.[Pt+2] [Carboplatin, reference compound]	–	–	–	–	did not inhibit tumor growth	–	–	–	–	–
Tisotumab vedotin: antibody-drug conjugate comprising an antibody that binds to tissue factor (TF), a protease-cleavable linker, and the microtubule disrupting agent MMAE	efficiently inhibited tumor growth	prolonged survival	efficiently inhibited tumor growth	prolonged survival	efficiently inhibited tumor growth	robust efficacy	manageable safety profile	majority of the reported cases are grade 1-2	most common reported AE	approximately 35%
